The numbers were not newly measured in patent US10201577B2, “Compositions and methods for enhancing working and long-term memory support using new combination of ginkgo biloba and panax ginseng and associated components” (KEYVIEW LABS, INC., priority 2017, dated 2019), which cites them from elsewhere.

The conditions of data set [1]: in vivo, po.
Data set [2] concerns long term potentiation (LTP). Conditions: in vivo.
Data set [3] has as its target T1, choline acetyltransferase (Homo sapiens, UniProt P28329).
T1 sequence (P28329 1-748): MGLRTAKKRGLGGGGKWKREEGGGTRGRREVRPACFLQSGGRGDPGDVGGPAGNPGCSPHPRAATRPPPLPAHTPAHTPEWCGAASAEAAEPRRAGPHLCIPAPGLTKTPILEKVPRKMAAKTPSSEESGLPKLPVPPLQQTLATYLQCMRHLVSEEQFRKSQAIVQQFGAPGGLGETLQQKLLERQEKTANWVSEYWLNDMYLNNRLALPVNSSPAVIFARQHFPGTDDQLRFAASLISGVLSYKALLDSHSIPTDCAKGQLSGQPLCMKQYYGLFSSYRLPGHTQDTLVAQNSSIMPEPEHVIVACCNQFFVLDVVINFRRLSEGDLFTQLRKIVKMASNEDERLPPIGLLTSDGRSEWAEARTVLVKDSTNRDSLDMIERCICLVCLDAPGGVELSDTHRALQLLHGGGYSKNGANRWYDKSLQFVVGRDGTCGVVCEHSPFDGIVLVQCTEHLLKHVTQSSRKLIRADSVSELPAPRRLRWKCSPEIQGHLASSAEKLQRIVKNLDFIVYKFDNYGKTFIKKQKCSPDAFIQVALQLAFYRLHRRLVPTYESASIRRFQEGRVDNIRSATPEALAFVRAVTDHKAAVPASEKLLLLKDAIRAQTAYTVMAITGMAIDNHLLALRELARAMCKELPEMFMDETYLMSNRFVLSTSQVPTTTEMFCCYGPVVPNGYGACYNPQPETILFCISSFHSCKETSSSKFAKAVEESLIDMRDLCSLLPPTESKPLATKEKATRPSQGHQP
The conditions noted are these: isolated Rb1.

Data set [4] concerns acetylcholine release. Conditions: isolated Rb1.

As to `CC1C(=O)OC2C(O)C34C5CC(C(C)(C)C)C36C(OC(=O)C6O)OC4(C(=O)O5)C12O` (centres unmarked) [Ginkgolide B], in data set [1], the elimination half-life was 4.31 ± 0.49 h and the “time of peak plasma level” value was “around 2.25±0.45 hours”.
On to `CC(C)=CCC[C@](C)(O[C@@H]1O[C@H](CO[C@@H]2O[C@H](CO)[C@@H](O)[C@H](O)[C@H]2O)[C@@H](O)[C@H](O)[C@H]1O)[C@H]1CC[C@]2(C)[C@@H]1[C@H](O)C[C@@H]1[C@@]3(C)CC[C@H](O[C@@H]4O[C@H](CO)[C@@H](O)[C@H](O)[C@H]4O[C@@H]4O[C@H](CO)[C@@H](O)[C@H](O)[C@H]4O)C(C)(C)[C@@H]3CC[C@]12C` [Rb1], for which the “long term potentiation (LTP)” value in data set [2] was “capable of in vivo modulation”. In data set [3], the choline acetyltransferase activity entry is reported as “stimulates”. In data set [4], the acetylcholine release entry is listed as “stimulates”.
